In patent publication US20040131701A1, “Method to treat infectious diseases and/or to enhance antimicrobial efficacy of drugs” (Virocell Inc., priority 2000, published 2004):

How the values were obtained:
[1] = system: T-tropic strain HIV-1NL4-3; test: Replication of HIV-1 in Sup-T1 cells (p24 in culture supernatants); type: cell-based; conditions: 10 days, all three tested concentrations
Text: (§1) Fully infectious viral entities were generated by calcium phosphate transfection of 293T with pNL4-3 vector (T-tropic virions) as described below. Recombinant luciferase-encoding virus particles pseudotyped with the appropriate Env proteins have been used in our series of investigations. Such a system provides a highly sensitive and reproducible assay to monitor single-cycle viral infection events. This test is based on the molecular construct pNL4-3-Luc-E-R+, a vector that carries the gene for firefly luciferase inserted into the nef gene of the pNL4-3 provirus and contains also a frameshift at the 5′ end of env (nt 5950) that prevents expression of the envelope glycoproteins. […]
Sup-T1 cells were seeded at a density of 10^5 cells per well (100 μl) in 96-well flat-bottom, plates. […] Cells were incubated for 10 days and kinetics of viral infection was assessed by measuring in cell-free culture supernatants the major core viral p24 protein with the use of a commercial enzymatic assay (Organon Teknika). Putative toxicity of bpV molecules was assessed by adding the tetrazolium salt MTT to Sup-T1 cells that were cultured for 10 days under the constant pressure of the indicated concentrations of bpV[pic] and bpV[phen] molecules.

[2] = system: T-tropic recombinant luciferase-encoding HIV-1 particles; test: Infection of PM1 cells with luciferase reporter virus, T-tropic envelope; type: cell-based; conditions: 5 min pretreatment, 72 h
Text: as §1, with “glycoproteins. Progeny viruses were generated by cotransfecting 293T cells with pNL4-3-Luc-E-R+ and a plasmid DNA encoding for the appropriate envelope glycoproteins (T or macrophage-tropic). Briefly, a typical transfection experiment was performed as follow.” for “glycoproteins.”
(§2) In brief, 100 μl of cell-free supernatant were discarded from each well and 25 μl of cell culture lysis buffer 5×(125 mM Tris phosphate [pH 7.8], 10 mM DTT, 5% Triton X-100, and 50% glycerol) were added to the wells before incubation at room temperature for 30 min. […] Luciferase activity was monitored using a microplate luminometer (MLX; Dynex Technologies, Chantilly, Va.). […]

[3] = system: macrophage-tropic recombinant luciferase-encoding HIV-1 particles; test: Infection of PM1 cells with luciferase reporter virus, macrophage-tropic envelope; type: cell-based; conditions: 5 min pretreatment, 72 h
Text: as §1, with “glycoproteins. Progeny viruses were generated by cotransfecting 293T cells with pNL4-3-Luc-E-R+ and a plasmid DNA encoding for the appropriate envelope glycoproteins (T or macrophage-tropic). Briefly, a typical transfection experiment was performed as follow.” for “glycoproteins.”
as §2

[4] = system: recombinant luciferase-encoding virions (NL4-3 backbone) pseudotyped with macrophage-tropic ADA envelope; test: Infection of primary human MDM with luciferase-encoding virions, ADA envelope; type: cell-based, HIV-1; conditions: 48 h; for anti-HIV-1 efficacy (luciferase activity): 10 μM bpV[pic] or 5 μM bpV[phen], pretreatment 5 to 120 min
Text: (§3) Fully infectious viral entities were generated by calcium phosphate transfection of 293T with pNL4-3 vector (T-tropic virions) as described below. Recombinant luciferase-encoding virus particles pseudotyped with the appropriate Env proteins have been used in our series of investigations. […] This test is based on the molecular construct pNL4-3-Luc-E-R+, a vector that carries the gene for firefly luciferase inserted into the nef gene of the pNL4-3 provirus and contains also a frameshift at the 5′ end of env (nt 5950) that prevents expression of the envelope glycoproteins. Progeny viruses were generated by cotransfecting 293T cells with pNL4-3-Luc-E-R+ and a plasmid DNA encoding for the appropriate envelope glycoproteins (T or macrophage-tropic). Briefly, a typical transfection experiment was performed as follow. In brief, 293T cells were plated 24 h before transfection at a concentration of 5×10^5 cells per 3 ml of DMEM into each well of 6-well plates. All solutions were brought to room temperature before use. Immediately before transfection, DNA was added to 25 μl of 2.5M CaCl2 and the volume was completed to 250 μl with distilled water. This solution was then added drop by drop to 250 μl of 2×HBS solution (280 mM NaCl, 50 mM HEPES, 1.5 mM Na2HPO4, pH 7.05) and the resulting mixture was stored at room temperature for 5 min. This DNA-HBS mixture was finally added drop by drop to plated 293T cells before incubation at 37° C. under a 5% CO2atmosphere. At 16 h after transfection, cells were washed twice with 3 ml of PBS and were incubated for an additional 24 h with 3 ml of DMEM supplemented with 10% FBS. Virion-containing supernatants were filtered through a 0.45-μm cellulose acetate membrane (Millipore, Mass.), aliquoted in 200 μl fractions, and were finally frozen at −85° C. until needed. Virus stocks were normalized for virion content using a commercial assay for the viral major core protein p24 (Organon Teknika, Durham, N.C.).
(§4) In brief, 100 μl of cell-free supernatant were discarded from each well and 25 μl of cell culture lysis buffer 5×(125 mM Tris phosphate [pH 7.8], 10 mM DTT, 5% Triton X-100, and 50% glycerol) were added to the wells before incubation at room temperature for 30 min. An aliquot of cell lysate (20 μl) was mixed with 100 μl luciferase assay buffer (20 mM tricine, 1.07 mM (MgCO3)4. Mg(OH)2.5H2O, 2.67 mM MgSO4, 0.1 mM EDTA, 270 μM coenzyme A, 470 μM luciferin, 530 μM ATP, and 33.3 mM DTT). Luciferase activity was monitored using a microplate luminometer (MLX; Dynex Technologies, Chantilly, Va.).

[5] = system: primary human MDM; test: MTT toxicity in primary human MDM; type: cell-based; conditions: 48 h
Text: Target cells used in the present invention include human CD4-expressing T lymphoid Sup-T1, PM1, and Jurkat cells. Moreover, primary human monocyte-derived macrophages (MDM) and peripheral blood mononuclear cells (PBMC′) were also used in the current work, MDM were obtained using a standard technique. In brief, the mononuclear cell fraction was isolated by Ficoll-Hypaque centrifugation. Peripheral blood mononuclear cells were suspended in seeding medium (RPMI 1640+20% fetal calf serum+10% human serum type AB) in tissue culture 48-well plates (3×10^6 cells/ml and 500 μl per well). Five days after the initiation of the cultures, nonadherent cells were removed by rinsing the cultures three times with phosphate buffered saline. Next, such adherent cells were maintained in RPMI 1640 medium supplemented with 20% fetal calf serum.
Putative toxicity of bpV[pic] and bpV[phen] molecules was next assessed by adding the tetrazolium salt MTT to primary human MDM that were cultured for 48 h under the constant pressure of the indicated concentrations of bpV compounds.

[6] = system: Sup-T1 cells; type: cell-based, human
Experimental: Sup-T1 cells were seeded at a density of 10^5 cells per well (100 μl) in 96-well flat-bottom, plates. Cells were either left untreated (control) or were pretreated for 5 min at 37° C. with the two different bpV molecules (bpV [pic] and bpV[phen]) at the indicated concentrations in a final volume of 200 μl. Next, both untreated and bpV-treated Sup-T1 cells were inoculated with the fully infectious T-tropic strain HIV-1NL4-3 (10 ng of p24). Culture medium was replaced twice a week and was supplemented with the appropriate final concentration of bpV molecules. Cells were incubated for 10 days and kinetics of viral infection was assessed by measuring in cell-free culture supernatants the major core viral p24 protein with the use of a commercial enzymatic assay (Organon Teknika). Putative toxicity of bpV molecules was assessed by adding the tetrazolium salt MTT to Sup-T1 cells that were cultured for 10 days under the constant pressure of the indicated concentrations of bpV[pic] and bpV[phen] molecules.

[7] = system: recombinant luciferase-encoding virions (NL4-3 backbone) pseudotyped with T-tropic HXB-2D envelope; test: Infection of Jurkat cells with luciferase-encoding virions, HXB-2D envelope; type: cell-based, HIV-1; conditions: 72 h
Text: as §3, §4
We attempted to define any putative interaction (additive, synergistic or antagonistic) between bpV compounds and currently approved anti-HIV-1 agents (AZT/Zidovudine, 3TC/Epivir/Lamivudine). […]

[8] = system: Human peripheral blood mononuclear cells; test: HPLC analysis of phosphorylated forms of 3TC in PBMC's; type: cell-based; conditions: 10 μM bpV[pic], 3TC at 5, 10 and 20 μM
Experimental: Analysis of the cellular content in 3TC and its phosphorylated metabolites was performed by HPLC as follows. In preparations for HPLC analysis, 1 ml of a mixture of acetonitrile/water (5/95, vol/vol) and 0.5 ml water were added to each sample. The samples were vortexed and centrifuged at 1000×g for 10 min at room temperature to remove the precipitated material. The supernatants were collected and used without further treatment for HPLC analysis. Two (2) ml of each sample (total volume of ˜2.5 ml) were injected onto a Beckman Ultrasphere ODS column (4.6 mm×150 mm) protected with a Guard-Pak C18 (Waters Millipore) pre-column. 3TC and its metabolites were eluted using a linear gradient from 100% solvent A to 100% solvent B in 25 minutes at a flow rate of 1.2 ml/minute (Solvent A: 5% acetonitrile, 70% water, 25% buffer [40 mM H3PO4, 8 mM tetrabutylammonium hydroxide, adjusted to pH 6.75 with concentrated ammonium hydroxide]; Solvent B: 40% acetonitrile, 35% water, 25% buffer). The elution of metabolites was monitored by counting radioactivity using a Flow Scintillation Analyser 500TR Series (Packard); the HPLC column effluent (1.2 ml/min) was mixed with a liquid scintillation cocktail (3 ml/min) (Ultima Flow M, Packard).
Human peripheral blood mononuclear cells (PBMC's) were obtained from healthy donors subjected to lymphopheresis for 60 min. The yield of PBMC's ranged from 1.8 to 2.6 billion cells per donor. Twenty-five (25) ml fractions of the cell suspensions (obtained by lymphopheresis) were layered on cushions (15 ml) of Lymphocyte Separation Medium (Wisent) in 50 ml tubes, which were then centrifuged at room temperature at 750×g during 25 min. The purified PBMC's were collected (on top of the Ficoll cushions) and washed 3 times in HBSS (without calcium and magnesium) (500×g, 7 min. at room temperature). The cells were resuspended in RPMI containing 5% FBS at the cell concentration of 25×10^6 per ml. Incubations were carried out using 1 ml of PBMC's suspension per tube. […]

Compound	HIV-1 production (p24) [1]	infection (luciferase activity) [2]	infection (luciferase activity) [3]	anti-HIV-1 efficacy (luciferase activity) ([4]; MDM)	toxicity (MTT) ([5]; 10 and 20 μM)	toxicity (MTT) [6]	HIV-1 infection (luciferase activity) ([4]; MDM, 10 μM alone, 15 min pretreatment)	antiviral effect in combination with 3TC ([4]; MDM, 10 μM bpV[pic] with 0.035 μM 3TC, 15 min pretreatment)	anti-HIV-1 effect in combination with 3TC ([4]; MDM, 1, 5 and 10 μM bpV[pic] with 0.07 μM 3TC, 5 min pretreatment)	toxicity (MTT) ([5]; 20 μM)	HIV-1 infection (luciferase activity) ([7]; bpV compound alone (2.5, 5, 10 μM))	antiviral effect in combination with 3TC ([7]; combined with 0.05 μM 3TC)	antiviral effect in combination with AZT ([7]; combined with 0.05 μM AZT)	formation of 3TC diphosphate [8]	formation of 3TC triphosphate [8]	ratio of 3TC triphosphate over 3TC diphosphate [8]	virus infection (luciferase activity) ([7]; antiviral agent alone 0.05 μM)
O.O.O.OO.OO.[K+].[OH-].[V].c1cnc2c(c1)ccc1cccnc12 [bpV[phen], K[VO(O2)2phen]0.3H2O]	dramatic decrease of HIV-1 production	dose-dependent inhibition of infection	dose-dependent inhibition of infection	maintained over several pretreatment periods	detectable toxic effect												
K2[VO(O2)2pic].H2O [bpV[pic]]	dramatic decrease of HIV-1 production	dose-dependent inhibition of infection	dose-dependent inhibition of infection	maintained over several pretreatment periods		no toxic effect	inhibits HIV-1 infection	additive antiviral effect	dose-dependent additive anti-HIV-1 effect	toxic	inhibits HIV-1 infection	greater antiviral effect	greater antiviral effect	decreased	increased	consistently increases	
Cc1cn([C@H]2C[C@H](N=[N+]=[N-])[C@@H](CO)O2)c(=O)[nH]c1=O [AZT, Zidovudine, reference compound]																	decreased
